Patent publication US6380165B1, “Immunological advanced glycation endproduct crosslink” (The Picower Institute for Medical Research, priority 1997, dated 2002)
Where a SMILES comes first, the peptide text is derived from it. The star is where a group is joined. Cbz = O=C(OCc1ccccc1)*

tested on: not listed separately; assay: acid lability of the isolated crosslink; type: physicochemical; conditions: not given

Compound	acid stability of the crosslink
O=C(NC1CCCNC2=NC(=CNCCCCC(C(=O)O)NC1=O)C(CC(O)CO)=N2)OCc1ccccc1 (stereo not drawn) [ALI, Arg-Lys-Imidazole]	acid-labile

tested on: AGE formation; assay: formation of the ALI crosslink from glucose and Nα-Z-arg-lys, inhibition of forming; conditions: not given
Excerpt: This example illustrates a proposed mechanism of the AGE formation (FIG. 2). First, dehydration of the lysine-derived AP (which has been determined to form in 18% yield under these reaction conditions) gives an obligate, AP-dione reactive intermediate. Reversible addition of the guanidine moiety to the dicarbonyl yields the 2-amino-4,5-dihydroxyimidazole adduct, which then undergoes dehydration to deliver the stable cyclic ALI.

Compound	inhibition of crosslink (ALI) formation
N=C(N)NN [aminoguanidine]	inhibited from forming

tested on: polyclonal anti-AGE antibody “RU”; assay: anti-AGE antibody-based competitive ELISA to measure AGE content (AGE-BSA as absorbed antigen); type: binding, rabbit; conditions: FIG. 1
Excerpt: For comparison purposes, the reactivity of FFI, CML, AFGP, pentosidine and cyclic pentosidine, and ligands with related epitope structure, such as N^α-Z-arg-lys, N^α-Z-arg-lys-AP, an imidazolium adduct, a pyrimidinium adduct, histidine, and lys-his, were studied. ELISA competition curves for the polyclonal anti-AGE antibody “RU” followed the methods described by Makita et al. (J. Biol. Chem. 267:1992, 1992). Assays employed glucose-derived, AGE-BSA as the absorbed antigen. FFI: 4-furanyl-2-furoyl-1H-imidazole (Ponger et al,. Proc. Natl. Acad Sci. U.S.A. 81:2684, 1984), CML: carboxy-methyllysine (Ahmed et al., J. Biol. Chem. 261:4889, 1986), AFGP: 1-alkyl-2-formyl-3,4-diglycosylpyrrole (Farmar et al., J. Org. Chem. 53:2346, 1988), PY: pyrraline (Njoroge et al., Carbohydrate Res. 167:211, 1987), P: pentosidine (Sell and Monnier, J. Biol. Chem. 264:21597, 1989), CP: cyclic pentosidine (CP) (Al-Abed et al., Bioorg. Med. Chem. Lett. 5:2929, 1995), AL: N^α-Z-arg-lys (AL), ALAP: N^α-Z-arg-lys-AP, H: histidine, LH: lys-his, PA: pyrimidinium adduct (Al-Abed et al., Bioorg. Med. Chem. Lett. 6:1577, 1996), and IA: imldazolium adduct (Brinkmann et al., J. Chem. Soc. Perkin Trans.
This example illustrates the discovery and isolation of the AGE of formula I. The dipeptide N^α-Z-arg-lys was selected as a target, because a close association of the arginine and lysine residues provides a significant proximity effect that promotes crosslink formation. Moreover, a synthetic strategy employing an arg-lys dipeptide was used successfully in the past to isolate a cyclic pentosidine in a high yield (Beisswenger et al., Diabetes 44:824, 1995). N^α-Z-arg-lys (13 mmoles) was incubated together with 10 equivalents of glucose in 0.2 M phosphate buffer (pH 7.4) for five weeks at 37° C. At least 25 distinct reaction products were identified upon fractionation of this mixture by reverse-phase HPLC. Each fraction was isolated, concentrated, and analyzed for its reactivity with anti-AGE antibody by ELISA (Makita et al., J. Biol Chem. 267:1992, 1992). Briefly, HPLC fractions and purified compounds were analyzed by an AGE-specific ELISA following methods described previously (Makita et al., J. Biol. Chem. 267:1992, 1992). This ELISA employed a polyclonal anti-AGE antibody raised by hyperimmunization against a heavily AGE-crosslinked preparation of ribonuclease. Total IgG was prepared by protein-G affinity chromatography and the ribonuclease backbone specificities removed by immunoabsorption. For assaying AGE immunoreactivity, 96-well round bottom microtitre plates (EIA/RIA plate, Costar, Cambridge, Mass.) first were coated with AGE-BSA (3 mg/ml, dissolved in 0.1 M sodium bicarbonate, pH 9.6) by incubation overnight at 4° C. After washing, the unbound sites were blocked with SuperBlock™ following the manufacturer's recommendations (Pierce, Rockford, Ill.). After washing, dilutions of test antigen, together with anti-AGE IgG, were added and the plates incubated at room temperature for 1 hr. The plates then were washed again and incubated with a secondary antibody (alkaline phosphatase-conjugated anti-rabbit IgG) at 37° C. for 1 hr. The unbound antibodies were removed by extensive washing and bound antibodies were detected by incubation with-nitrophenyl phosphate (pNPP) substrate for 30-60 min, and recording the optical density at 405 nm by an ELISA reader (EL309, Bio-Tek Instruments Inc., Burlington, Vt.). Results were expressed as B/B0, calculated as [experimental OD—background OD (i.e. no antibody)]/[total OD (i.e. no competitor)—background OD].

Compound	crossreactivity / reactivity with the RU anti-AGE antibody
1-alkyl-2-formyl-3,4-diglycosylpyrrole [AFGP]	no detectable crossreactivity
4-furanyl-2-furoyl-1H-imidazole [FFI]	no detectable crossreactivity
N=C(N)NCCC[C@H](NC(=O)OCc1ccccc1)C(=O)N[C@@H](CCCCN)C(=O)O [AL, N^α-Z-arg-lys] (Cbz-Arg-Lys-OH)	no detectable crossreactivity
N[C@@H](Cc1c[nH]cn1)C(=O)O [H, histidine]	no detectable crossreactivity
NCCCC[C@H](N)C(=O)N[C@@H](Cc1cnc[nH]1)C(=O)O [LH, lys-his]	no detectable crossreactivity
N[C@@H](CCCCn1c(C=O)ccc1CO)C(=O)O [PY, pyrraline]	no detectable crossreactivity
N^α-Z-arg-lys-AP [ALAP]	no detectable crossreactivity
cyclic pentosidine [CP]	no detectable crossreactivity
pentosidine	no detectable crossreactivity
